Data on seven compounds can be found in article PMC9412374, “Design, Synthesis, and Development of pyrazolo[1,5-a]pyrimidine Derivatives as a Novel Series of Selective PI3Kδ Inhibitors: Part I—Indole Derivatives” (Pharmaceuticals, 2022).

Holding throughout (assay type): biochemical
In one assay the target is T1, PI3Kγ (Homo sapiens, UniProt P48736).
T1 construct: purchased Merck Millipore
In words: In vitro kinase inhibition assay for PI3K (ADP-Glo), PI3Kγ. Conditions: for Fold Selectivity γ/δ: ratio of IC50 PI3Kγ to IC50 PI3Kδ. The method, then: (§1) Tested compounds were dissolved in 100% DMSO, and obtained solutions were serially diluted in 1× reaction buffer. The recombinant kinase solution was diluted in a reaction mixture comprising 5× reaction buffer, respective compound solution (1 mM sodium diacetate 4,5-bisphosphate phosphatidylinositol (PIP2) solution in 40 mM Tris buffer), and water. In a 96-wells plate, 5 μL of compound solutions and 15 μL of the kinase solution in the reaction mixture were added per well. To initiate the interaction of chemical compounds to be tested with the enzyme, the plate was incubated for 10 min at a suitable temperature in a plate thermostat with orbital shaking at 600 rpm. Negative control wells contained all the above reagents except tested compound and kinase, and positive control wells contained all the above reagents except tested compounds. […] Subsequently, the plate was incubated for 1 h at 25 or 30 °C (depending on the PI3K isoform tested) in a plate thermostat with orbital shaking of the plate contents at 600 rpm. The reaction conditions are combined in the table below (Table 6).
(§2) Detection of ADP formed in the enzymatic reaction was then performed using ADP-Glo Kinase Assay™ (Promega, Madison, WI, USA). To the wells of a 96-well plate, 25 μL of ADP-Glo Reagent™ was added, and the plate was incubated for 40 min at 25 °C in a plate thermostat with orbital shaking at 600 rpm. Then 50 μL of Kinase Detection Reagent were added to each well, and the plate was incubated for 40 min at 25 °C in a plate thermostat with orbital shaking at 600 rpm. Once the incubation was complete, the luminescence intensity was measured using a Victor Light luminometer (Perkin Elmer, Inc., Waltham, MA, USA). IC50 values were determined based on luminescence intensity measured in wells containing tested compounds at different concentrations in relation to control wells. […] Each compound was tested at least in quadruplicates (4 wells) on two 96-well plates utilizing at least 4 wells for each control.

The target of the next assay is T2, PI3Kβ (Homo sapiens, UniProt P42338).
T2 construct: purchased Merck Millipore
The assay is described as follows: In vitro kinase inhibition assay for PI3K (ADP-Glo), PI3Kβ. Conditions: for Fold Selectivity β/δ: ratio of IC50 PI3Kβ to IC50 PI3Kδ; for IC50: recombinant kinase, ADP-Glo, mean of two independent experiments, read-out: IC50 PI3K β. The method, then:
as §1, §2
Background: In ADP-Glo the light output rises with the ADP produced.

Another assay has as its target T3, PI3Kδ (Homo sapiens, UniProt O00329).
T3 construct: purchased Merck Millipore
The assay is described as follows: In vitro kinase inhibition assay for PI3K (ADP-Glo), PI3Kδ. The settings on record: recombinant kinase, mean of two independent experiments, read-out: IC50 PI3K δ. As for the experimental part:
as §1, §2

The target in the next assay is T4, PI3Kα (Homo sapiens, UniProt P42336).
T4 construct: purchased Carna Biosciences
The assay is described as follows: In vitro kinase inhibition assay for PI3K (ADP-Glo), PI3Kα. Conditions: for IC50: IC50 PI3K α, recombinant kinase, ADP-Glo, mean of two independent experiments; for Fold Selectivity α/δ: ratio of IC50 PI3Kα to IC50 PI3Kδ. The method, then:
Tested compounds were dissolved in 100% DMSO, and obtained solutions were serially diluted in 1× reaction buffer. The recombinant kinase solution was diluted in a reaction mixture comprising 5× reaction buffer, respective compound solution (1 mM sodium diacetate 4,5-bisphosphate phosphatidylinositol (PIP2) solution in 40 mM Tris buffer), and water. In a 96-wells plate, 5 μL of compound solutions and 15 μL of the kinase solution in the reaction mixture were added per well. To initiate the interaction of chemical compounds to be tested with the enzyme, the plate was incubated for 10 min at a suitable temperature in a plate thermostat with orbital shaking at 600 rpm. Negative control wells contained all the above reagents except tested compound and kinase, and positive control wells contained all the above reagents except tested compounds. The enzymatic reaction was initiated by adding 5 μL of 150 μM ATP solution. Subsequently, the plate was incubated for 1 h at 25 or 30 °C (depending on the PI3K isoform tested) in a plate thermostat with orbital shaking of the plate contents at 600 rpm. The reaction conditions are combined in the table below (Table 6).
Detection of ADP formed in the enzymatic reaction was then performed using ADP-Glo Kinase Assay™ (Promega, Madison, WI, USA). To the wells of a 96-well plate, 25 μL of ADP-Glo Reagent™ was added, and the plate was incubated for 40 min at 25 °C in a plate thermostat with orbital shaking at 600 rpm. Then 50 μL of Kinase Detection Reagent were added to each well, and the plate was incubated for 40 min at 25 °C in a plate thermostat with orbital shaking at 600 rpm. Once the incubation was complete, the luminescence intensity was measured using a Victor Light luminometer (Perkin Elmer, Inc., Waltham, MA, USA). IC50 values were determined based on luminescence intensity measured in wells containing tested compounds at different concentrations in relation to control wells. These values were calculated with Graph Pad 5.03 software by fitting the curve using non-linear regression. Each compound was tested at least in quadruplicates (4 wells) on two 96-well plates utilizing at least 4 wells for each control. Averaged results of inhibition activity respective to specific isoforms of PI3K kinases for tested compounds are presented as IC50 values in Table 1, Table 2, Table 3 and Table 4.

The mark [1] stands for this setting: recombinant kinase, ADP-Glo, mean of two independent experiments, read-out: IC50 PI3K γ.

Read-outs that look alike come from different tables or passages of the source. Some results are limits rather than exact numbers.

T1 sequence (P48736 whole entry): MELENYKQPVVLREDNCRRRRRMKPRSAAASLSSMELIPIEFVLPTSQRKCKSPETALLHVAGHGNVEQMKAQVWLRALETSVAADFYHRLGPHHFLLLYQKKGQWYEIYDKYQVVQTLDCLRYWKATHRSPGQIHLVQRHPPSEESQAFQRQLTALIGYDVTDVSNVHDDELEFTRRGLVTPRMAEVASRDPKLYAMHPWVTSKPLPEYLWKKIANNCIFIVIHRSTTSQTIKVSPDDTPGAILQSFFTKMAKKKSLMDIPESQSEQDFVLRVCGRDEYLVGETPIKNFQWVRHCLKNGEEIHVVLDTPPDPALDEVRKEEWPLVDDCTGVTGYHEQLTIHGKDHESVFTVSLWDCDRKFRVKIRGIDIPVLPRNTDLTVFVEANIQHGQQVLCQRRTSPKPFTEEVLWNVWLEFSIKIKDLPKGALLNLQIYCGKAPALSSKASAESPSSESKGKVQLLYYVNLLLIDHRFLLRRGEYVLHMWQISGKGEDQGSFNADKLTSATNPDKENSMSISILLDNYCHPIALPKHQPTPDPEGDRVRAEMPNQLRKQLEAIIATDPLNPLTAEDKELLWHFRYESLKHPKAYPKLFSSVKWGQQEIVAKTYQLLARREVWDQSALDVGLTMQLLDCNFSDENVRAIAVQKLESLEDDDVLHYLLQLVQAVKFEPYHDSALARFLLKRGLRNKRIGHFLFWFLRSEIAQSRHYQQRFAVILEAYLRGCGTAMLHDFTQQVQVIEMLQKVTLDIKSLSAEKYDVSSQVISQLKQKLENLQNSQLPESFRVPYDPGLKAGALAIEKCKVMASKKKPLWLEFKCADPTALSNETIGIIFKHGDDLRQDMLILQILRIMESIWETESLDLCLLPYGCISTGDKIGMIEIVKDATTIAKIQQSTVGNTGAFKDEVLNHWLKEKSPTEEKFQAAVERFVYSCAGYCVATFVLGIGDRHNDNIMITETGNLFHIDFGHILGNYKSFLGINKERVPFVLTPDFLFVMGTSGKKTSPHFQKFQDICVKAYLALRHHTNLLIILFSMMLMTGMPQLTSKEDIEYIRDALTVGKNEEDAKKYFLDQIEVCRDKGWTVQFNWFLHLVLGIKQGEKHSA
T4 sequence (P42336 whole entry): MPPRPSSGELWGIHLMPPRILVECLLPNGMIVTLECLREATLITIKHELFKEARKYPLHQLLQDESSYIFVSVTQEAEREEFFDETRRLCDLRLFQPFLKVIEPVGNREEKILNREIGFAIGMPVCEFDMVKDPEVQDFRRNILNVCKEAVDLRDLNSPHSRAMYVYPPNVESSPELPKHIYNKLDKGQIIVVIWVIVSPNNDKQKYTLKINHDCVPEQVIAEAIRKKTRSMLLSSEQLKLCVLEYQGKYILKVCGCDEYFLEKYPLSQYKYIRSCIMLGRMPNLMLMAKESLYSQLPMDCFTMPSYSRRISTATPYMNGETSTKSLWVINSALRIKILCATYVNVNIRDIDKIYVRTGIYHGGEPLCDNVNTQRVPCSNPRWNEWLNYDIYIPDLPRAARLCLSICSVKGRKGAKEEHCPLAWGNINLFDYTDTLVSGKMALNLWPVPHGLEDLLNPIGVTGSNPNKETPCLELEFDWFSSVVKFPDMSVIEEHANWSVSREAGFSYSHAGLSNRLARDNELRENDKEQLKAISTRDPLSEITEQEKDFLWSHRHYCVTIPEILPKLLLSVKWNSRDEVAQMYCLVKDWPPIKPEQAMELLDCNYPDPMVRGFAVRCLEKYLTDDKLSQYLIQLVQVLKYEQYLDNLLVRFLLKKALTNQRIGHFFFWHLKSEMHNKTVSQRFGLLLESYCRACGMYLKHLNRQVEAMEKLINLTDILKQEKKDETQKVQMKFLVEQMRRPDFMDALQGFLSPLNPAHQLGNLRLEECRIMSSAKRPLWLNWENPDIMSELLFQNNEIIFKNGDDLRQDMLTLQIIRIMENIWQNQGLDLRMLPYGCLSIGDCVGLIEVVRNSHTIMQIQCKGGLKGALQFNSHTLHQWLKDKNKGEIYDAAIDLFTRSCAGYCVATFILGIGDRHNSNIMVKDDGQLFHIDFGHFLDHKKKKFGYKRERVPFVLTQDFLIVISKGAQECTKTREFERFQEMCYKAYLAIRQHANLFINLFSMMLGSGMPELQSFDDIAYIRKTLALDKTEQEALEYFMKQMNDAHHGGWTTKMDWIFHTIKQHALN
T4 sequence (P27986 whole entry partner): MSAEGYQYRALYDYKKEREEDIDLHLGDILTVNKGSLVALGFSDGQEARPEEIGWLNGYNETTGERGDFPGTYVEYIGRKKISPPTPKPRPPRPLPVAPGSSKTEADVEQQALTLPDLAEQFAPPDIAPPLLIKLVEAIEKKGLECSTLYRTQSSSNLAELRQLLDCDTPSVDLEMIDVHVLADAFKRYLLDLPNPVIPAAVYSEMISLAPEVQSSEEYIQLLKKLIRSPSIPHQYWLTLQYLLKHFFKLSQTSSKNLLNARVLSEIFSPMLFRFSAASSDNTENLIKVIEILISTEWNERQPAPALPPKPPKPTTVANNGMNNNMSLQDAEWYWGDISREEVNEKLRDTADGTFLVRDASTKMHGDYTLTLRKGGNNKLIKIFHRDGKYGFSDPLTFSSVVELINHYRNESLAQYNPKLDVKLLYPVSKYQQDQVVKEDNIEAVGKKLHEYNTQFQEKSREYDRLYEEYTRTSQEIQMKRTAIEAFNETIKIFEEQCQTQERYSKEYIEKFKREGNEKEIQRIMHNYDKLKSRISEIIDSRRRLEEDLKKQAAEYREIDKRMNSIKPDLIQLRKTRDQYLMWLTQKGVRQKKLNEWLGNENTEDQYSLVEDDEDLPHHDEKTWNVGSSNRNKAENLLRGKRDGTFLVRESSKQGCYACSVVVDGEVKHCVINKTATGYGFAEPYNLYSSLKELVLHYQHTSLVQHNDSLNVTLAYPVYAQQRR
T2 sequence (P42338 whole entry): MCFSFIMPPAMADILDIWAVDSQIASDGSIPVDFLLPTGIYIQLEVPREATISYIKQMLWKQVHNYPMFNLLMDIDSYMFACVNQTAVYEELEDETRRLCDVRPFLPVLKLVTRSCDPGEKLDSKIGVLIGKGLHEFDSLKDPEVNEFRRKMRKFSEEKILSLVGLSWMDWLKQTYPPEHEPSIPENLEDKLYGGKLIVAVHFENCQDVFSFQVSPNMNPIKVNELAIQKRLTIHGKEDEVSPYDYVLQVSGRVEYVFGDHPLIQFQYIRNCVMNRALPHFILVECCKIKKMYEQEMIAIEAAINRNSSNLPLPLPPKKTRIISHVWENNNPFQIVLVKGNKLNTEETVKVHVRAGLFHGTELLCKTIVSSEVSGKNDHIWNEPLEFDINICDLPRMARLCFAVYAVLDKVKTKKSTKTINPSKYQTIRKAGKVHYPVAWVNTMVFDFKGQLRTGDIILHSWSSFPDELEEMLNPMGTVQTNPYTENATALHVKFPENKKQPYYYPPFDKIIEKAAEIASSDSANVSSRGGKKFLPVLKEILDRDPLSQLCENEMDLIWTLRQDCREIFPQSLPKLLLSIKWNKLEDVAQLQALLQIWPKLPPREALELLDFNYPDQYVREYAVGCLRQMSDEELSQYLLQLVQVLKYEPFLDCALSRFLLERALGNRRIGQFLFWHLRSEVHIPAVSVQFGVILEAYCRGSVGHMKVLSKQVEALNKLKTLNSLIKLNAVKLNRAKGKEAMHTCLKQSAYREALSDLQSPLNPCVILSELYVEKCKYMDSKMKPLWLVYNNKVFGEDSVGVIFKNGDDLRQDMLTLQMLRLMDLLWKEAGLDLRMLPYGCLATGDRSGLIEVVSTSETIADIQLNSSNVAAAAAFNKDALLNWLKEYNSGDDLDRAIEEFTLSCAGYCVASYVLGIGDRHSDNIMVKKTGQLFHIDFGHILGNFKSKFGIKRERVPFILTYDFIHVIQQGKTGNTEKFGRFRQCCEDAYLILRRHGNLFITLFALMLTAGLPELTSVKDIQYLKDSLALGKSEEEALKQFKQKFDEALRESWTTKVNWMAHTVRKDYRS
T2 sequence (P27986 whole entry, further chain): as the sequence (P27986 whole entry partner) above
T3 sequence (P27986 whole entry): as the sequence (P27986 whole entry partner) above
T3 sequence (O00329 whole entry): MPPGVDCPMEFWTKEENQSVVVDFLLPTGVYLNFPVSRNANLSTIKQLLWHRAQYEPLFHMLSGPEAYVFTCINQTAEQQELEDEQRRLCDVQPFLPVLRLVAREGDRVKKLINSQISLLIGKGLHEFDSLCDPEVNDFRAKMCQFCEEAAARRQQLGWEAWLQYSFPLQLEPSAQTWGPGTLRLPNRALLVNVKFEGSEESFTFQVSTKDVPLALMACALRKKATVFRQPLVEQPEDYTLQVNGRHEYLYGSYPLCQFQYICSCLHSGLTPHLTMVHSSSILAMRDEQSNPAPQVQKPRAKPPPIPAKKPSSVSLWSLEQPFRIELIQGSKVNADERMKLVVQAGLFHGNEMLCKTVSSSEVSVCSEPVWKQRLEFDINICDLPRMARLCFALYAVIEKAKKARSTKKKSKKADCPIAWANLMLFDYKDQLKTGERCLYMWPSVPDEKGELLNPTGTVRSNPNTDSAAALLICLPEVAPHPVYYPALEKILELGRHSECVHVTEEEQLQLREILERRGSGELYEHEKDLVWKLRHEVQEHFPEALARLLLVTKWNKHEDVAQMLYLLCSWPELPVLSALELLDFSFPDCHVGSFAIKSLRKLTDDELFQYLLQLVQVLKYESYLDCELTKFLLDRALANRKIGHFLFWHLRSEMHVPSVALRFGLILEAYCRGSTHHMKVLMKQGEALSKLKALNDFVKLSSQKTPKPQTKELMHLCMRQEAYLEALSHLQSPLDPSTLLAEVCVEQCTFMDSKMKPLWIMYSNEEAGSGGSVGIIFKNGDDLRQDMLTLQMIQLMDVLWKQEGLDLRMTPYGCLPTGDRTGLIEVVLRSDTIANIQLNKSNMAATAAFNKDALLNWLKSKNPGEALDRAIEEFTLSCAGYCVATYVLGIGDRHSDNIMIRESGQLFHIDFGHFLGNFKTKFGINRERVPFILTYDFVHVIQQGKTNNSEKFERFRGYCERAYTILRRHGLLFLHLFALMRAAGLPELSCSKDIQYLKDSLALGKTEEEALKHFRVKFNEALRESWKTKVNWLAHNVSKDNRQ

For orientation: IC50 means the concentration needed to halve the response being measured. As for `CN(C)C1CCN(Cc2cc3nc(-c4cccc5[nH]ccc45)cc(N4CCOCC4)n3n2)CC1` [Compound 24, 2-((4-(dimethylamino)piperidin-1-yl)methyl)-5-(1H-indol-4-yl)-7-(morpholin-4-yl)pyrazolo[1,5-a]pyrimidine], on PI3Kγ, the “Fold Selectivity γ/δ” value was 1332. The IC50 at PI3Kγ (setting [1]) was 49.3 µM; at PI3Kβ it was 14.4 µM; at PI3Kδ, 0.037 µM; at PI3Kα, 6.38 µM. For the same compound, the “Fold Selectivity β/δ” value on PI3Kβ amounted to 389. At PI3Kα, the “Fold Selectivity α/δ” value is reported as 172.
Regarding `CC(C)(C(N)=O)N1CCN(Cc2cc3nc(-c4cccc5[nH]ccc45)cc(N4CCOCC4)n3n2)CC1` [Compound 38, 2-(4-((5-(1H-indol-4-yl)-7-(morpholin-4-yl)pyrazolo[1,5-a]pyrimidin-2-yl)methyl)piperazin-1-yl)-2-methylpropionamide], at PI3Kγ, the IC50 was 17.5 µM and the “Fold Selectivity γ/δ” value is listed as 428. At PI3Kβ, the “Fold Selectivity β/δ” value amounted to 146 and the IC50 turned out to be 5.99 µM. Also, on PI3Kδ, the IC50 amounted to 0.041 µM. Besides, on PI3Kα, the IC50 was 17.7 µM and the “Fold Selectivity α/δ” value was 433.
On to `CCN1CCN(Cc2cc3nc(-c4cccc5[nH]ccc45)cc(N4CCOCC4)n3n2)CC1` [Compound 34, 2-((4-ethylpiperazin-1-yl)methyl)-5-(1H-indol-4-yl)-7-(morpholin-4-yl)pyrazolo[1,5-a]pyrimidine], for which the “Fold Selectivity γ/δ” value at PI3Kγ is reported as greater than 1395. In addition, the IC50 is greater than 60 µM at PI3Kγ (setting [1]), 10.9 µM on PI3Kβ, 0.043 µM on PI3Kδ and 34.3 µM on PI3Kα. The “Fold Selectivity β/δ” value on PI3Kβ was 253. Moreover, the “Fold Selectivity α/δ” value at PI3Kα is recorded as 798.
Turning to `CC(C)(O)C1CCN(Cc2cc3nc(-c4cccc5[nH]ccc45)cc(N4CCOCC4)n3n2)CC1` [Compound 36, 2-((4-(2-hydroxypropan-2-yl)piperidin-1-yl)methyl)-5-(1H-indol-4-yl)-7-(morpholin-4-yl)pyrazolo[1,5-a]pyrimidine], the IC50 at PI3Kγ was 15.9 µM; at PI3Kβ, 4.31 µM; on PI3Kδ, 0.013 µM; on PI3Kα it was 15.8 µM. Besides, the “Fold Selectivity γ/δ” value on PI3Kγ was found to be 1223. The “Fold Selectivity β/δ” value at PI3Kβ is on record as 332. Besides, the “Fold Selectivity α/δ” value on PI3Kα amounted to 1217.
As to `CC(C)(C)C1CCN(Cc2cc3nc(-c4cccc5[nH]ccc45)cc(N4CCOCC4)n3n2)CC1` [Compound 41, 2-((4-tert-butylpiperidin-1-yl)methyl)-5-(1H-indol-4-yl)-7-(morpholin-4-yl)pyrazolo[1,5-a]pyrimidine], the “Fold Selectivity γ/δ” value at PI3Kγ was determined as 191. In addition, the IC50 on PI3Kγ (setting [1]) came to 9.73 µM; at PI3Kβ, 3.17 µM; on PI3Kδ, 0.051 µM; at PI3Kα, 12.3 µM. Also, the “Fold Selectivity β/δ” value at PI3Kβ turned out to be 62. On PI3Kα, the “Fold Selectivity α/δ” value is recorded as 241.
In the case of `CC(C)(O)C1CCN(Cc2cc3nc(-c4c(F)ccc5[nH]ccc45)cc(N4CCOCC4)n3n2)CC1` [Compound 49, 2-((4-(2-hydroxypropan-2-yl)piperidin-1-yl)methyl)-5-(5-fluoro-1H-indol-4-yl)-7-(morpholin-4-yl)pyrazolo[1,5-a]pyrimidine], the “Fold Selectivity γ/δ” value on PI3Kγ is on record as 1195. Also, the IC50 is 47.8 µM on PI3Kγ (setting [1]), 11.3 µM on PI3Kβ, 0.04 µM on PI3Kδ and 34.4 µM at PI3Kα. On PI3Kβ, the “Fold Selectivity β/δ” value is on record as 283. Also, on PI3Kα, the “Fold Selectivity α/δ” value amounted to 860.
With `O=C(C1CC1)N1CCN(Cc2cc3nc(-c4cccc5[nH]ccc45)cc(N4CCOCC4)n3n2)CC1` [Compound 44, 2-((4-(cyclopropanecarbonyl)piperazin-1-yl)methyl)-5-(1H-indol-4-yl)-7-(morpholin-4-yl)pyrazolo[1,5-a]pyrimidine], at PI3Kγ, the “Fold Selectivity γ/δ” value stood at 38. Moreover, the IC50 on PI3Kγ (setting [1]) worked out at 0.846 µM; on PI3Kβ, 7.31 µM; on PI3Kδ it was 0.022 µM; at PI3Kα, 1.27 µM. Also, the “Fold Selectivity β/δ” value on PI3Kβ was determined as 332. Besides, at PI3Kα, the “Fold Selectivity α/δ” value came to 58.
